In the OligoGym collection:
Several values for one entry are separate records, joined by “and”; a condition that tells them apart may be missing. Equal values may be shown once. After the bases stand the sugars from the 5' end (letter, count) and the backbone: PS all phosphorothioate, else s phosphorothioate and o phosphodiester by linkage. Methylation of C is not given here. e = 2'-O-(2-methoxyethyl) (MOE); k = constrained ethyl (cEt); d = 2'-deoxy (DNA)

Target: IRF4
Settings: ASO

AGGTAGTAGACCACAG (sugars k3 d10 k3, PS)
target mRNA inhibition (SK-MEL-28, 4 µM): 59%

AGGTTGCCGAGATATA (sugars k3 d10 k3, PS)
target mRNA inhibition (MM.1R, 1 µM): 54% and 67%

AGTAAACTTGGCTGTG (sugars k3 d10 k3, PS)
target mRNA inhibition (SK-MEL-28, 4 µM): 38%

AGTAAGAGGGCAGTCA (sugars k3 d10 k3, PS)
target mRNA inhibition (SK-MEL-28, 4 µM): 50%

AGTATGAGAAACGGCC (sugars k3 d10 k3, PS)
target mRNA inhibition (SK-MEL-28, 4 µM): 62%

AGTATGAGAAACGGCC (sugars kddddddddddkekek, PS)
target mRNA inhibition (MM.1R, 1 µM): 10%

AGTATGAGAAACGGCC (sugars kkdddddddddekeke, PS)
target mRNA inhibition (MM.1R, 1 µM): 11%

AGTCACGCAATGGCAA (sugars k3 d10 k3, PS)
target mRNA inhibition (SK-MEL-28, 4 µM): 50%

AGTCAGTGTCAATACT (sugars k3 d10 k3, PS)
target mRNA inhibition (SK-MEL-28, 4 µM): 47%

AGTCTTTTCGCATAGA (sugars k3 d10 k3, PS)
target mRNA inhibition (SK-MEL-28, 4 µM): 45%

AGTGACTTGCATCCAT (sugars k2 d9 e3 k2, PS)
target mRNA inhibition (MM.1R, 1 µM): 52%

AGTGACTTGCATCCAT (sugars kdddddddddkekeke, PS)
target mRNA inhibition (MM.1R, 1 µM): 8%

AGTGATGAGATATTCC (sugars k3 d10 k3, PS)
target mRNA inhibition (SK-MEL-28, 4 µM): 59%

AGTGATGTCAGGTTTT (sugars k2 d9 e3 k2, PS)
target mRNA inhibition (MM.1R, 1 µM): 25%

AGTGATGTCAGGTTTT (sugars k3 d10 k3, PS)
target mRNA inhibition (SK-MEL-28, 4 µM): 72%

AGTGATGTCAGGTTTT (sugars kdddddddddkekeke, PS)
target mRNA inhibition (MM.1R, 1 µM): 40%

AGTGATGTCAGGTTTT (sugars kkddddddddddkeke, PS)
target mRNA inhibition (MM.1R, 1 µM): 32%

AGTGATGTCAGGTTTT (sugars kkkddddddddkekek, PS)
target mRNA inhibition (MM.1R, 1 µM): 37%

AGTGCAGGAGAGGCTG (sugars k3 d10 k3, PS)
target mRNA inhibition (SK-MEL-28, 4 µM): 36%

AGTGCCCAAGCCTTGA (sugars k3 d10 k3, PS)
target mRNA inhibition (SK-MEL-28, 4 µM): 48%

AGTGGAGGTCTTTGGG (sugars k3 d10 k3, PS)
target mRNA inhibition (SK-MEL-28, 4 µM): 55%

AGTGTAACTGAGGACT (sugars k3 d10 k3, PS)
target mRNA inhibition (SK-MEL-28, 4 µM): -7%

AGTGTCTAAAGTCCCA (sugars kdddddddddkekeke, PS)
target mRNA inhibition (MM.1R, 1 µM): -12% and 12%

AGTGTCTAAAGTCCCA (sugars kkdddddddddekeke, PS)
target mRNA inhibition (MM.1R, 1 µM): 18% and 19%

AGTGTCTAAAGTCCCA (sugars kkdddddddddkekek, PS)
target mRNA inhibition (MM.1R, 1 µM): 26% and 9%

AGTTCATGTAAAGTCT (sugars kkdddddddddekeke, PS)
target mRNA inhibition (MM.1R, 1 µM): 51% and 49%

AGTTGTAAATGAGTCG (sugars kkdddddddddkdkdk, PS)
target mRNA inhibition (MM.1R, 1 µM): 39%

AGTTGTAAATGAGTCG (sugars kkkddddddddkekek, PS)
target mRNA inhibition (MM.1R, 0.074 µM): 18% | target mRNA inhibition (MM.1R, 0.222 µM): 46% | target mRNA inhibition (MM.1R, 0.666 µM): 49% | target mRNA inhibition (MM.1R, 1 µM): 61% | target mRNA inhibition (MM.1R, 2 µM): 73%

AGTTTAAGGGTTACGC (sugars k3 d10 k3, PS)
target mRNA inhibition (MM.1R, 0.0625 µM): -2% and 15% | target mRNA inhibition (MM.1R, 0.074 µM): 7% | target mRNA inhibition (MM.1R, 0.222 µM): 8% | target mRNA inhibition (MM.1R, 0.666 µM): 20% | target mRNA inhibition (MM.1R, 1 µM): 4% and 24% | target mRNA inhibition (MM.1R, 2 µM): 28% | target mRNA inhibition (MM.1R, 4 µM): 22% and 40% | target mRNA inhibition (SK-MEL-28, 4 µM): 63%

AGTTTACTAACTGGCT (sugars k3 d10 k3, PS)
target mRNA inhibition (SK-MEL-28, 4 µM): 63%

ATAAAGGACCCCGCCA (sugars k3 d10 k3, PS)
target mRNA inhibition (SK-MEL-28, 4 µM): 18%

ATAACATGAGAGTGTT (sugars k3 d10 k3, PS)
target mRNA inhibition (MM.1R, 1 µM): -17%

ATAACGAGGTGCCTTA (sugars k3 d10 k3, PS)
target mRNA inhibition (SK-MEL-28, 4 µM): 13%

ATAACGGTGTTTCAGA (sugars k3 d10 k3, PS)
target mRNA inhibition (SK-MEL-28, 4 µM): 47%

ATAAGAAGCACTGGCA (sugars k3 d10 k3, PS)
target mRNA inhibition (SK-MEL-28, 4 µM): 51%

ATAAGATCCCACGAAG (sugars k3 d10 k3, PS)
target mRNA inhibition (SK-MEL-28, 4 µM): -42%

ATACATCACTGCAGTT (sugars k3 d10 k3, PS)
target mRNA inhibition (SK-MEL-28, 4 µM): 36%

ATACATTCACACTGCC (sugars k3 d10 k3, PS)
target mRNA inhibition (SK-MEL-28, 4 µM): 45%

ATAGCTGTTTATTTCC (sugars k4 d8 k4, PS)
target mRNA inhibition (MM.1R, 0.074 µM): 7% | target mRNA inhibition (MM.1R, 0.222 µM): 6% | target mRNA inhibition (MM.1R, 0.666 µM): 11% | target mRNA inhibition (MM.1R, 2 µM): 32% | target mRNA inhibition (SK-MEL-28, 0.185 µM): -2% and -10% and -3% | target mRNA inhibition (SK-MEL-28, 4 µM): 59% | target mRNA inhibition (SK-MEL-28, 15 µM): 81% and 79% and 91%

ATAGTAGGTAAGATCT (sugars k3 d10 k3, PS)
target mRNA inhibition (SK-MEL-28, 4 µM): -13%

ATAGTTGTCTGGCTAG (sugars k3 d10 k3, PS)
target mRNA inhibition (SK-MEL-28, 4 µM): 52%

ATATACATTGAGGCAT (sugars k3 d10 k3, PS)
target mRNA inhibition (MM.1R, 1 µM): -31%

ATATGACGACTTAAGC (sugars k3 d10 k3, PS)
target mRNA inhibition (SK-MEL-28, 4 µM): 38%

ATCACGAGGTTGCCGA (sugars k3 d10 k3, PS)
target mRNA inhibition (SK-MEL-28, 4 µM): 60%

ATCAGATACACACCCT (sugars k3 d10 k3, PS)
target mRNA inhibition (SK-MEL-28, 4 µM): -8%

ATCAGATGATGTCTAG (sugars k3 d10 k3, PS)
target mRNA inhibition (SK-MEL-28, 4 µM): -3%

ATCCAGAGGACCACGC (sugars k3 d10 k3, PS)
target mRNA inhibition (SK-MEL-28, 4 µM): 19%

ATCCTGTAGTATGAGA (sugars k3 d10 k3, PS)
target mRNA inhibition (SK-MEL-28, 4 µM): 45%

ATCCTTAATTATGCAG (sugars k3 d10 k3, PS)
target mRNA inhibition (SK-MEL-28, 4 µM): 39%

ATCGAGATCAGTCTCA (sugars k3 d10 k3, PS)
target mRNA inhibition (SK-MEL-28, 4 µM): 76%

ATCGAGCGGTGAAACT (sugars k3 d10 k3, PS)
target mRNA inhibition (SK-MEL-28, 4 µM): 29%

ATCTACTCCAGACCCC (sugars k3 d10 k3, PS)
target mRNA inhibition (SK-MEL-28, 4 µM): 27%

ATCTATAAGATGTATA (sugars k4 d8 k4, PS)
target mRNA inhibition (SK-MEL-28, 4 µM): 36%

ATCTGAATTGTTACTA (sugars k3 d10 k3, PS)
target mRNA inhibition (SK-MEL-28, 4 µM): 12%

ATGAGATATTCCTCTC (sugars k3 d10 k3, PS)
target mRNA inhibition (SK-MEL-28, 4 µM): 32%

ATGAGTCGGTCACTTG (sugars k3 d10 k3, PS)
target mRNA inhibition (SK-MEL-28, 4 µM): 78% and 72%

ATGATATTAGAGACTG (sugars k3 d10 k3, PS)
target mRNA inhibition (SK-MEL-28, 4 µM): 74%

ATGGAACAGTAACTTG (sugars k3 d10 k3, PS)
target mRNA inhibition (MM.1R, 1 µM): 3%

ATGGCAGTGGAGCTCC (sugars k3 d10 k3, PS)
target mRNA inhibition (SK-MEL-28, 4 µM): 56%

ATGTGATAGCTGAGCT (sugars kkddddddddddkeke, PS)
target mRNA inhibition (MM.1R, 1 µM): 4%

ATGTGATAGCTGAGCT (sugars kkdddddddddkekek, PS)
target mRNA inhibition (MM.1R, 1 µM): 24%

ATGTGTATTACTCTTA (sugars kdddddddddkekeke, PS)
target mRNA inhibition (MM.1R, 1 µM): 36% and 49%

ATGTGTATTACTCTTA (sugars kkddddddddddkeke, PS)
target mRNA inhibition (MM.1R, 1 µM): 47% and 48%

ATGTGTATTACTCTTA (sugars kkdddddddddkekek, PS)
target mRNA inhibition (MM.1R, 1 µM): 54% and 49%

ATGTTAGCCAATTCCT (sugars k2 d9 e3 k2, PS)
target mRNA inhibition (MM.1R, 1 µM): 17% and 6%

ATGTTAGCCAATTCCT (sugars kdddddddddkekeke, PS)
target mRNA inhibition (MM.1R, 1 µM): 0% and 5%

ATGTTAGCCAATTCCT (sugars kkddddddddddkeke, PS)
target mRNA inhibition (MM.1R, 1 µM): 20% and 15%

ATTAATTCTCCTATGC (sugars k3 d10 k3, PS)
target mRNA inhibition (SK-MEL-28, 4 µM): 15%

ATTCATTTTATGGACC (sugars k3 d10 k3, PS)
target mRNA inhibition (SK-MEL-28, 4 µM): 42%

ATTCCAACAGGCGGAC (sugars k3 d10 k3, PS)
target mRNA inhibition (MM.1R, 1 µM): 2%

ATTTAAGTCATGTGTC (sugars k3 d10 k3, PS)
target mRNA inhibition (MM.1R, 1 µM): 17%

ATTTACACCGTTGCTC (sugars k3 d10 k3, PS)
target mRNA inhibition (MM.1R, 1 µM): 13%

ATTTACTGTTACCGAT (sugars k3 d10 k3, PS)
target mRNA inhibition (SK-MEL-28, 4 µM): 29%
